Legend:
mGluR5 [1] = target: T1, mGluR5 (Rattus norvegicus, UniProt P31424); settings: cited from earlier work
T1 construct: positive allosteric modulators of mGluR5 receptors in native preparations; endogenous in cells; host or cells: primary cortical astrocytes from Sprague-Dawley rat embryos (E16-19)

rat mGluR5 = target: T2, rat mGluR5 (Rattus norvegicus, UniProt P31424); assay: mGluR5 assay on HEK-expressing rat mGluR5 (fluorescent cell based Ca2+ mobilization assay); settings: for activation of rat mGluR5 receptors without co-addition of glutamate: HEK-rat mGluR5 cell line, no added glutamate or mGluR5 agonist; for EC50: HEK-293 cells stably expressing rat mGluR5, no co-addition of glutamate, mean of at least three independent experiments in duplicate, read-out: Ca2+ Flux (mean EC50)
T2 construct: expressed in transfected cells
Description: Positive functional expression of HEK-293 cells stably expressing rat mGluR5 receptor was determined by measuring intracellular Ca^2+ changes using a Fluorometric Imaging Plate Reader (FLIPR, Molecular Devices, Sunnyvale, Calif.) in response to glutamate or selective known mGluR5 agonists and antagonists. Rat mGluR5 RT-PCR products in HEK-293 cells were sequenced and found 100% identical to rat mGluR5 Genbank reference sequence (NM_017012). HEK-293 cells expressing mGluR5 were maintained in media containing DMEM, dialyzed Fetal Bovine Serum (10%), Glutamax™ (2 mM), Penicillin (100 units/ml), Streptomycin (100 μg/ml), Geneticin (100 μg/ml) and Hygromycin-B (40 μg/ml) at 37° C./5% CO2.
After one day of incubation, cells were washed with assay buffer containing: 142 mM NaCl, 6 mM KCl, 1 mM […], 1 mM CaCl2, 20 mM HEPES, 1 g/L glucose, 0.125 mM sulfinpyrazone, pH 7.4. After 60 min of loading with 4 uM Fluo-4 (TefLabs, Austin, Tex.), the cells were washed three times with 50 μl of PBS Buffer and resuspended in 45 μl of assay Buffer. The plates were then transferred to a Fluorometric Imaging Plate Reader (FLIPR, Molecular Devices, Sunnyvale, Calif.) for the assessment of intracellular calcium flux. After monitoring the baseline fluorescence for 10 seconds, increasing concentrations of representative compound (from 0.01 to 60 μM) of the present invention diluted in Assay Buffer (15 μl of 4× dilutions) was added to the cell. The final DMSO concentration in the assay was 0.3%. In each experiment, fluorescence was then monitored as a function of time for 3 minutes and the data analyzed using Microsoft Excel and GraphPad Prism. Each data point was also measured two times.
Under these experimental conditions, this HEK-rat mGluR5 cell line is able to directly detect positive allosteric modulators without the need of co-addition of glutamate or mGluR5 agonist.
The concentration-response curves of representative compounds of the present invention were generated using the Prism GraphPad software (Graph Pad Inc, San Diego, USA). The curves were fitted to a four-parameter logistic equation:
(Y=Bottom+(Top−Bottom)/(1+10̂((Log EC50−X)*Hill Slope)
allowing determination of EC50 values.
The Table 1 below represents the mean EC50 obtained from at least three independent experiments of selected molecules performed in duplicate.

mGluR5 [2] = target: T1, mGluR5; assay: mGluR5 binding assay ([3H]-MPEP, rat brain membranes); settings: 3 nM [3H]-MPEP, rat cortex membranes, 1 h at 4° C.; read-out: IC50, inhibition of [3H]-MPEP binding
Source text: Activity of compounds of the invention was examined following a radioligand binding technique using whole rat brain and tritiated 2-methyl-6-(phenylethynyl)-pyridine ([^3H]-MPEP) as a ligand following similar methods than those described in Gasparini F. et al. (2002) Bioorg. Med. Chem. Lett., 12, 407-409 and in Anderson J. F. et al. J. Pharmacol. Exp. Ther. 2002, 303, 3, 1044-1051.
Cortices were dissected out from brains of 200-300 g Sprague-Dawley rats (Charles River Laboratories, L'Arbresle, France). Tissues were homogenized in 10 volumes (vol/wt) of ice-cold 50 mM Hepes-NaOH (pH 7.4) using a Polytron disrupter (Kinematica AG, Luzern, Switzerland) and centrifuged for 30 min at 40,000 g. (4° C.). […] Protein concentration was determined by the Bradford method (Bio-Rad protein assay, Reinach, Switzerland) with bovine serum albumin as standard.
Membranes were thawed and resuspended in binding buffer containing 20 mM HEPES-NaOH, 3 mM MgCl2, 3 mM CaCl2, 100 mM NaCl, pH 7.4. […] Radioactivity was determined by liquid scintillation spectrometry using a 96-well plate reader (TopCount, Perkin-Elmer, Downers Grove, USA).
The inhibition curves were generated using the Prism GraphPad program (Graph Pad Software Inc, San Diego, USA). […] The mean of IC50 obtained from at least three independent experiments of selected molecules performed in duplicate were calculated.

T1 sequence (P31424 21-1203): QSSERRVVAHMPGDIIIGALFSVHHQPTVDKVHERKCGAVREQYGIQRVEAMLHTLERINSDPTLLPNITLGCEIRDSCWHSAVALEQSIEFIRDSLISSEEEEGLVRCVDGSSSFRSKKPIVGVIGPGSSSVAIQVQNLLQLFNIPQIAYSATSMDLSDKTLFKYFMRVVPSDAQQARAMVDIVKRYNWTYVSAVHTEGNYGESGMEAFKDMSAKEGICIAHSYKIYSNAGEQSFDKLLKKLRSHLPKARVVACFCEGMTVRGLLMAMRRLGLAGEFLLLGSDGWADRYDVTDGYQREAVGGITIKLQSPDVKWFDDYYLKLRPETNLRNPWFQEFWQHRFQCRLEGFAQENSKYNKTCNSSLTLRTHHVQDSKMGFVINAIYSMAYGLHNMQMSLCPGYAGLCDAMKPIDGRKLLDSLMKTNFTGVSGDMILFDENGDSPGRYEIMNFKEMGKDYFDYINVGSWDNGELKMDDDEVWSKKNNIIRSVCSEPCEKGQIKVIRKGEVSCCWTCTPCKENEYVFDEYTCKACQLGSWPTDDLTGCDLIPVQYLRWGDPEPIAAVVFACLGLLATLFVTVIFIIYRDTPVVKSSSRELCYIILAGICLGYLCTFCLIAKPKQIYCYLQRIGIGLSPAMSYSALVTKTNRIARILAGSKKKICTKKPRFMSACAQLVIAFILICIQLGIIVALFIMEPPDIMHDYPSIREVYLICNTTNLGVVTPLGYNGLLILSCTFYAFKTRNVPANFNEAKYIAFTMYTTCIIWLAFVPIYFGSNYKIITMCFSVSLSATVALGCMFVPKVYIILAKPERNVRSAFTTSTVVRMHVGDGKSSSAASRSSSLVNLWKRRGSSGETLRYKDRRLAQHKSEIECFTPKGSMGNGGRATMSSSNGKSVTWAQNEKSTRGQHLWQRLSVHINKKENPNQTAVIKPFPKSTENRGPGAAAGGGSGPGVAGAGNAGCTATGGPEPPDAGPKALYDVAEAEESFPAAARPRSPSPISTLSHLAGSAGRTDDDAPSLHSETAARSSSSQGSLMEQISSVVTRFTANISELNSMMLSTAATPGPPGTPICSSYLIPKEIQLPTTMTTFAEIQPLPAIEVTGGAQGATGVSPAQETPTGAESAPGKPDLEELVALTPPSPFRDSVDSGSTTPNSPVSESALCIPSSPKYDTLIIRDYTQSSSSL
T2 sequence (P31424 21-1171 isoform P31424-2 limits assumed): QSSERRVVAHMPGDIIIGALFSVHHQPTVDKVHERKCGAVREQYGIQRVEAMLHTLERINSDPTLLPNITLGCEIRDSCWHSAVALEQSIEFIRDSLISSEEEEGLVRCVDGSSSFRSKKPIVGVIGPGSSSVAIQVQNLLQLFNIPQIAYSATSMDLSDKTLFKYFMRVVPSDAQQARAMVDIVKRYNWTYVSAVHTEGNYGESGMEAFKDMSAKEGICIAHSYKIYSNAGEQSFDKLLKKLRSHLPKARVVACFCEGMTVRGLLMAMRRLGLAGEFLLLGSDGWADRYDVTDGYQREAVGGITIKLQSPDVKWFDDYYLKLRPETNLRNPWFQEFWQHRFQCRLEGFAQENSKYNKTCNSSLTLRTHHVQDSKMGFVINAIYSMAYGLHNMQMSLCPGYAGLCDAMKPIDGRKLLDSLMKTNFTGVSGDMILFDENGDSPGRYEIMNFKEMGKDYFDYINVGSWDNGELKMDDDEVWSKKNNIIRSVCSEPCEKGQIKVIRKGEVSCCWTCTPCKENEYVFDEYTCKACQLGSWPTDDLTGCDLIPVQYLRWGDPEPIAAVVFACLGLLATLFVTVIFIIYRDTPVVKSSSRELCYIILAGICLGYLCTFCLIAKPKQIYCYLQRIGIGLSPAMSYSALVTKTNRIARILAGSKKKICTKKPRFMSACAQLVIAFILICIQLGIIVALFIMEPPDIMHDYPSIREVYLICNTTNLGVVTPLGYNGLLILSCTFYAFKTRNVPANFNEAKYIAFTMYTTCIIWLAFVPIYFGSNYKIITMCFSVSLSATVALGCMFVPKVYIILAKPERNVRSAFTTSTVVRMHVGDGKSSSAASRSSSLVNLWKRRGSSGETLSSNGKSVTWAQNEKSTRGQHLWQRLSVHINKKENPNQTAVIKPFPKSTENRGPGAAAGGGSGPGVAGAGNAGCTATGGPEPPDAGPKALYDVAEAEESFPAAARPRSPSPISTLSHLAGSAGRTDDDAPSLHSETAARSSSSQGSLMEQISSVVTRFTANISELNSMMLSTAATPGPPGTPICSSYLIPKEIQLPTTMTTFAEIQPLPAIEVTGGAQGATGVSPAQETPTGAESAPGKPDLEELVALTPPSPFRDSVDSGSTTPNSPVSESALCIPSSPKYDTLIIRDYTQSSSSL

Compound | EC50 (rat mGluR5) | other results
N#Cc1cccc(C(=O)Nc2cc(-c3ccccc3)nn2-c2ccccc2)c1 [CDPPB, reference compound] | – | activity in rat cortical astrocytes culture in the absence of added glutamate (mGluR5 [1]): inactive; activation of rat mGluR5 receptors without co-addition of glutamate (rat mGluR5): activating
O=C(Nc1ccc(Cl)cc1CN1C(=O)c2ccccc2C1=O)c1ccccc1O [CPPHA, reference compound] | – | activity in rat cortical astrocytes culture in the absence of added glutamate (mGluR5 [1]): inactive; activation of rat mGluR5 receptors without co-addition of glutamate (rat mGluR5): activating
Fc1cccc(/C=N/N=C/c2cccc(F)c2)c1 [DFB, reference compound] | – | activity in rat cortical astrocytes culture in the absence of added glutamate (mGluR5 [1]): inactive; activation of rat mGluR5 receptors without co-addition of glutamate (rat mGluR5): activating
O=C(Nc1ccc(F)cc1)O[C@H]1CCCN(C(=O)c2ccc(F)cc2)C1 [Example 1, (4-Fluoro-phenyl)-carbamic acid (S)-1-(4-fluoro-benzoyl)-piperidin-3-yl ester] | 1000 to 10000 nM | IC50 (mGluR5 [2]): < 30000 nM
O=C(Nc1ccc(Cl)cc1)O[C@H]1CCCN(C(=O)c2ccc(F)cc2)C1 [Example 2, (4-Chloro-phenyl)-carbamic acid (S)-1-(4-fluoro-benzoyl)-piperidin-3-yl ester] | 1000 to 10000 nM | –
COc1ccc(NC(=O)O[C@H]2CCCN(C(=O)c3ccc(F)cc3)C2)cc1 [Example 3, (4-Methoxy-phenyl)-carbamic acid (S)-1-(4-fluoro-benzoyl)-piperidin-3-yl ester] | 1000 to 10000 nM | –
O=C(Nc1ccccc1)O[C@H]1CCCN(C(=O)c2ccc(F)cc2)C1 [Example 4, Phenyl-carbamic acid (S)-1-(4-fluoro-benzoyl)-piperidin-3-yl ester] | < 1000 nM | –
O=C(Nc1cccc(F)c1)O[C@H]1CCCN(C(=O)c2ccc(F)cc2)C1 [Example 5, (3-Fluoro-phenyl)-carbamic acid (S)-1-(4-fluoro-benzoyl)-piperidin-3-yl ester] | < 1000 nM | –
O=C(Nc1ccccc1F)O[C@H]1CCCN(C(=O)c2ccc(F)cc2)C1 [Example 6, (2-Fluoro-phenyl)-carbamic acid (S)-1-(4-fluoro-benzoyl)-piperidin-3-yl ester] | < 1000 nM | –
O=C(NC1CCCC1)O[C@H]1CCCN(C(=O)c2ccc(F)cc2)C1 [Example 7, Cyclopentyl-carbamic acid (S)-1-(4-fluoro-benzoyl)-piperidin-3-yl ester] | > 10000 nM | –
O=C(NC1CCCCC1)O[C@H]1CCCN(C(=O)c2ccc(F)cc2)C1 [Example 8, Cyclohexyl-carbamic acid (S)-1-(4-fluoro-benzoyl)-piperidin-3-yl ester] | 1000 to 10000 nM | –
O=C(Nc1ccncc1)O[C@H]1CCCN(C(=O)c2ccc(F)cc2)C1 [Example 9, Pyridin-4-yl-carbamic acid (S)-1-(4-fluoro-benzoyl)-piperidin-3-yl ester] | 1000 to 10000 nM | –
O=C(NCc1ccc(F)cc1)O[C@H]1CCCN(C(=O)c2ccc(F)cc2)C1 [Example 10, (4-Fluoro-benzyl)-carbamic acid (S)-1-(4-fluoro-benzoyl)-piperidin-3-yl ester] | 1000 to 10000 nM | –
O=C(Nc1ccc(F)cc1)N[C@H]1CCCN(C(=O)c2ccc(F)cc2)C1 [Example 11, 1-[(S)-1-(4-Fluoro-benzoyl)-piperidin-3-yl]-3-(4-fluoro-phenyl)-urea] | 1000 to 10000 nM | melting point: 228 to 231 °C
O=C(Nc1ccccc1)OC1CCN(C(=O)c2ccc(F)cc2)C1 (stereo not drawn) [Example 12, (Phenyl)-carbamic acid-1-(4-fluoro-benzoyl)-pyrrolidin-3-yl ester] | 1000 to 10000 nM | melting point: 173 to 175 °C
